Experimental data as given in patent publication US9828384B2, “Spiro-lactam NMDA receptor modulators and uses thereof” (Aptinyx Inc., priority 2013, dated 2017).
pEC50: −log10 of the molar value. Where two headings read alike, the source gives them in different places.

Legend:
[1] = biological target: T1, NMDA receptor (Rattus norvegicus, UniProt P35439); assay: [3H] MK-801 Binding Assay (MK-801 Glycine Site Binding Assay: Rat Cortex)
T1 construct: well washed rat cortical membranes (200 μg); from tissue; host or cells: rat cerebral cortex membranes
Method: Assays were conducted as described in Moskal et al. (Moskal, J. R., Kuo, A. G., Weiss, C., Wood, P. L., O'Connor Hanson, A., Kelso, S., Harris, R. B., Disterhoft, J. F., 2005. GLYX-13: a monoclonal antibody-derived peptide that acts as an N-methyl-D-aspartate receptor modulator. Neuropharmacology. 49, 1077-87) The potentiation of [^3H]MK-801 binding (5 nM; 22.5 Ci/mmol) to well washed rat cortical membranes (200 μg) was measured under non-equilibrium conditions (15 min @25° C.) in the presence of increasing concentrations of test compounds and 50 μM glutamate. Zero levels were determined in the absence of any glycine ligand and in the presence of 30 μM 5,7 DCKA. Maximal stimulation was measured in the presence of 1 mM glycine, and 50 μM glutamate was present in all samples. The facilitation of [^3H]MK-801 binding by tests compounds was calculated by using a 3 parameter log agonist vs. response equation (Graph pad Prism, USA) and potency (EC50, expressed in pM) and maximal activity (% maximal stimulation) were calculated for the test compound.

[2] = system: LTP; assay: LTP augmentation; settings: LTP concentration 1 uM
[3] = Porsolt floating time inhibition; assay type: in vivo; settings: 1 hour post dose
[4] = Table 3, read-out: MK-801 Glycine Site Binding Assay: Rat Cortex EC50

`CC(O)C(c1ncccn1)N1CC2(CCCN2)C1=O` (centres unmarked) [Compound Y, 2-(2-hydroxy-1-(pyrimidin-2-yl)propyl)-2,5-diazaspiro[3.4]octan-1-one] showed a pEC50 ([1]; Table 2, read-out: MK-801 Glycine Site Binding Assay: Rat Cortex EC50) of 9.54, an Emax ([1]; maximal stimulation measured with 1 mM glycine, 50 μM glutamate) of 14% and a pEC50 ([1]; rat cortical membranes, 50 μM glutamate, read-out: potency (EC50) for potentiation of [3H]MK-801 binding) of 9.54. For the same compound, the “Unified Activity Data: LTP Augmentation (Percent)” value [2] was 140% and the “Unified Activity Data: Porsolt Floating Time Inhibition (Percent)” value ([3]; 3 mg/kg IV) was 92%.

For `CC(O)C(c1ncccn1)N1CC2(CCC(C)N2C(=O)OC(C)(C)C)C1=O` (centres unmarked) [Compound C-19, tert-butyl 2-(2-hydroxy-1-(pyrimidin-2-yl)propyl)-6-methyl-1-oxo-2,5-diazaspiro[3,4]octane-5-carboxylate], the pEC50 [1, 4] was 9.96 and the “LTP: LTP Augmentation (%)” value [2] was 110%.

In the case of “2-(2-hydroxy-1-(pyrimidin-2-yl)propyl)-3,6-dimethyl-2, 5-diazaspiro[3,4]octan-1-one [Compound C-33]”, the pEC50 [1, 4] was 11.15 and the “LTP: LTP Augmentation (%)” value [2] was 30%.

With `CC(O)C(c1ncccn1)N1C(=O)C2(CCCN2C(=O)OC(C)(C)C)C1C` (centres unmarked) [Compound C-29, tert-butyl 2-(2-hydroxy-1-(pyrimidin-2-yl)propyl)-1-methyl-3-oxo-2,5-diazaspiro[3,4]octane-5-carboxylate] the pEC50 [1, 4] was 9.87 and the “LTP: LTP Augmentation (%)” value [2] was 125%.

In the case of `C[C@@H](O)[C@@H](c1ncno1)N1CC2(CCCN2C(=O)OC(C)(C)C)C1=O` (stereo partly drawn) [Compound C-15, tert-butyl 2-((1S,2R)-2-hydroxy-1-(1,2,4-oxadiazol-5-yl)propyl)-1-oxo-2,5-diazaspiro[3,4]octane-5-carboxylate], the “Unified Activity Data: LTP Augmentation (Percent)” value [2] was 120% and the “Unified Activity Data: Porsolt Floating Time Inhibition (Percent)” value ([3]; 1 mg/kg PO) was 86%.

In the case of `CC1N([C@@H](c2nnco2)[C@H](C)O)C(=O)C12CCCN2C(=O)OC(C)(C)C` (stereo partly drawn) [Compound C-26, tert-butyl 2-((1R, 2S)-2-hydroxy-1-(1,3,4-oxadiazol-2-yl)propyl)-1-methyl-3-oxo-2,5-diazaspiro[3,4]octane-5-carboxylate], the “LTP: LTP Augmentation (%)” value [2] was 65%.
